What all share (format): biochemical
The target in assay [1] is JAK2 (Homo sapiens, UniProt O60674). The assay is described as follows: JAK kinase activity, homogeneous time-resolved fluorescence (JAK2 reaction system). As to conditions: ATP 2 μM, JAK2 protein 0.01 ng/μL. The protocol: (§1) The activity measurement method of JAK kinase was to use homogeneous time-resolved fluorescence technique. The reaction was performed in 384 shallow well plates with a total reaction volume of 10 μL. The mixture of kinase protein, compound, ATP and substrate was carried out in a reaction buffer of 50 mM Hepes (pH7.0), NaN3 0.02%, BSA 0.01%, 0.1 mM orthocanadate, 5 mM MgCl2, and 1 mM DTT. After reacting for 1 hour, antibody capable of recognizing substrate phosphorylation and dye XL-615 and detection buffer (Cisbio) containing EDTA were added to the system. The reaction signal of kinase was detected by PE company's porous plate detector. The parameter settings were excitation light at 320 nm, emission light at 615 nm and 665 nm. The activity of JAK is indirectly reflected by the signal ratio of 665 nm and 615 nm. In the reaction, the background well without enzyme and the total enzyme activity well without compound were set.
JAK2, sequence (O60674 whole entry): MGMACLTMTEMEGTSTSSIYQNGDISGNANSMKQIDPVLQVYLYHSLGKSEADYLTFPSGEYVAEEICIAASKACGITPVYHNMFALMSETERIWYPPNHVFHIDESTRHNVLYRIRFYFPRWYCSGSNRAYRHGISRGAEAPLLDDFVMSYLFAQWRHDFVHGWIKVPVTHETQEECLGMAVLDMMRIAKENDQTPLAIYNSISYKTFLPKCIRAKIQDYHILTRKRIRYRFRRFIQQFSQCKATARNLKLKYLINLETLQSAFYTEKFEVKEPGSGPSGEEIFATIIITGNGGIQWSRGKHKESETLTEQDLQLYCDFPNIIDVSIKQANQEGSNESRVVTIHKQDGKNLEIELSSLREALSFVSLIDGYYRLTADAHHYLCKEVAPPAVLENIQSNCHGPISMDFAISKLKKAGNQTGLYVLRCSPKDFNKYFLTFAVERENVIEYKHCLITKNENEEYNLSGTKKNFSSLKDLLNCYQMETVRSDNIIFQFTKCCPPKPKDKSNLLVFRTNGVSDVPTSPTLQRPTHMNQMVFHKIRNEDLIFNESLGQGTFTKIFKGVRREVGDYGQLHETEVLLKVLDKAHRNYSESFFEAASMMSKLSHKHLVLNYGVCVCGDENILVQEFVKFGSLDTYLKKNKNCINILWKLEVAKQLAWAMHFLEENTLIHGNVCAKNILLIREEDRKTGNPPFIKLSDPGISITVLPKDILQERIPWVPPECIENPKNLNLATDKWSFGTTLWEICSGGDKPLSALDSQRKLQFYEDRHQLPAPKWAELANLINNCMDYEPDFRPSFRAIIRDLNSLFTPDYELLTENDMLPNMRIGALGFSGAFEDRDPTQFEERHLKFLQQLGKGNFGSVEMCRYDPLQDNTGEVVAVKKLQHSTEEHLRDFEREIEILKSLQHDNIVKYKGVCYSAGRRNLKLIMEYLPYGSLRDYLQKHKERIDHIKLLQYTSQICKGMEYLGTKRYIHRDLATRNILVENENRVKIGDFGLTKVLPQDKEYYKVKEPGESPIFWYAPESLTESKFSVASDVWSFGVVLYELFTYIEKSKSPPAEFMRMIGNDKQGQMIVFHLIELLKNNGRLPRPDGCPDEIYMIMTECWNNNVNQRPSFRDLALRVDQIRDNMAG
(§2) The IC50 value of the compound inhibiting protein was obtained by the formula: Y=100/(1+10^((Log IC50−X)*HillSlope)).
In JAK2 reaction system, the concentration of ATP was 2 μM, and the concentration of JAK2 protein was 0.01 ng/μL.

Assay [2] concerns the target T1, JAK3 (Homo sapiens, UniProt P52333).
T1 sequence (P52333 1-1124): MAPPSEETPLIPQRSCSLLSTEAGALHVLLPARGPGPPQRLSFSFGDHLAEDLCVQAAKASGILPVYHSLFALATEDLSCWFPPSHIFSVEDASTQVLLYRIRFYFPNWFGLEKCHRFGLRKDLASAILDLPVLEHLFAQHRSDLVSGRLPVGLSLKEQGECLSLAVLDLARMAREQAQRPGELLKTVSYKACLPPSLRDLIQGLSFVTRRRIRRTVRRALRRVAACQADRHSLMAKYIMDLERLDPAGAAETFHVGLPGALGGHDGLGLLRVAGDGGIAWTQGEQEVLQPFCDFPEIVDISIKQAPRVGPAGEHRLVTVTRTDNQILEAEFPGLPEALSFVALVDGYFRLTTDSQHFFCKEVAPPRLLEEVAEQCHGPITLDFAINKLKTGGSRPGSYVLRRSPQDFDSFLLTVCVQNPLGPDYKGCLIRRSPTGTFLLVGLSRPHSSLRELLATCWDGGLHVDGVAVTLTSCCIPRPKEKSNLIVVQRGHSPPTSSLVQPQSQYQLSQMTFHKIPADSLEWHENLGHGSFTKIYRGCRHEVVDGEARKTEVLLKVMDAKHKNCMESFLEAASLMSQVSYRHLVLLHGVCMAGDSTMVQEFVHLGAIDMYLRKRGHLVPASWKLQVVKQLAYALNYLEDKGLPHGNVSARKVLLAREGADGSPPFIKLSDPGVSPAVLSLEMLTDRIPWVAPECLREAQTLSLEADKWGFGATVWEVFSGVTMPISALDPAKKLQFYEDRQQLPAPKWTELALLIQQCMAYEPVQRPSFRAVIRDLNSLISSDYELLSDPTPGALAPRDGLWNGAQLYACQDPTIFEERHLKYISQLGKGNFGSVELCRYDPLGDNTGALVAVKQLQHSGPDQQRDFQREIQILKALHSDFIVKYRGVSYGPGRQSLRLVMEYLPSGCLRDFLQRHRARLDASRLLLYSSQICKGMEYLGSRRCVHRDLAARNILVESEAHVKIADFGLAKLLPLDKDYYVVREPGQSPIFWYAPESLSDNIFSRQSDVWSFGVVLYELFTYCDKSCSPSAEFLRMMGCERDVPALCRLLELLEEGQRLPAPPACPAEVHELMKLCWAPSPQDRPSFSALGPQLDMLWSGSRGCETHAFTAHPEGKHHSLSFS
The assay is described as follows: JAK kinase activity, homogeneous time-resolved fluorescence (JAK3 reaction system). As to conditions: ATP 2 μM, JAK3 protein 0.04 ng/μL; read-out: JAK 3 activity. The protocol: as §1, §2
In JAK3 reaction system, the concentration of ATP was 2 μM, and the concentration of JAK3 protein was 0.04 ng/μL.

For assay [3], the target named is JAK1 (Homo sapiens, UniProt P23458). The assay is described as follows: JAK kinase activity, homogeneous time-resolved fluorescence (JAK1 reaction system). As to conditions: ATP 2 μM, JAK1 protein 0.2 ng/μL; read-out: JAK 1 activity. How it is done: as §1, §2
JAK1, sequence (P23458 whole entry): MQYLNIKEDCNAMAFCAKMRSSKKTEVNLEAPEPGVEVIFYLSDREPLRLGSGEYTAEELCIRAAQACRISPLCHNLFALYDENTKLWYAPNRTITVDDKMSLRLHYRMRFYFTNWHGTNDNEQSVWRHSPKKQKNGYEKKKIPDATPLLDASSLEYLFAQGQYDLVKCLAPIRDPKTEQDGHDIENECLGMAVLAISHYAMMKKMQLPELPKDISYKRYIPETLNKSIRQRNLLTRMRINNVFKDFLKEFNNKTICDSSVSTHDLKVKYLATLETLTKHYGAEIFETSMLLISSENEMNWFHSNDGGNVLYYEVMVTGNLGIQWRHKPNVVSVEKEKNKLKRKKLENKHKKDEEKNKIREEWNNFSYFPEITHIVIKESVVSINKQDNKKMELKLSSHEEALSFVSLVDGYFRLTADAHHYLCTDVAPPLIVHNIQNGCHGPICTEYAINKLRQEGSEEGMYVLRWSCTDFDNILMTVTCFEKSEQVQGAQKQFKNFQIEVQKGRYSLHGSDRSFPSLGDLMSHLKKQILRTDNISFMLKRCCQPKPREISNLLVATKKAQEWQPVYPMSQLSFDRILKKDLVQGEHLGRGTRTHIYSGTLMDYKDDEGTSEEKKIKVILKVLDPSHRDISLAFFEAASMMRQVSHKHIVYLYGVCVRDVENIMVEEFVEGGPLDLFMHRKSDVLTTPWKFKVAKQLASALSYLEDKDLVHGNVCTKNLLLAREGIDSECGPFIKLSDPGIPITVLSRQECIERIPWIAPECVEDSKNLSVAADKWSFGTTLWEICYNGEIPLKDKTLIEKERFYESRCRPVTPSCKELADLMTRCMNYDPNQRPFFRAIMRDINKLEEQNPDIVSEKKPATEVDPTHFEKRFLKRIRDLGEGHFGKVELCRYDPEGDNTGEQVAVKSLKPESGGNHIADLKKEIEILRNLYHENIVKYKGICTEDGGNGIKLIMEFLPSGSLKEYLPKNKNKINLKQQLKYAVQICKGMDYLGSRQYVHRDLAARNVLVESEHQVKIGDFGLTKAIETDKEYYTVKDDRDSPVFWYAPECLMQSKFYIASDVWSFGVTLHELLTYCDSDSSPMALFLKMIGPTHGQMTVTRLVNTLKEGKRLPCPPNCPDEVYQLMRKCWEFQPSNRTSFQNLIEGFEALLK
In JAK1 reaction system, the concentration of ATP was 2 μM, and the concentration of JAK1 protein was 0.2 ng/μL.

Assay [4] has as its target TYK2 (Homo sapiens, UniProt P29597). The assay is described as follows: JAK kinase activity, homogeneous time-resolved fluorescence (TYK2 reaction system). Particulars: ATP 2 μM, TYK2 protein 0.2 ng/μL; read-out: TYK 2 activity. The protocol: as §1, §2
In TYK2 reaction system, the concentration of ATP was 2 μM and the concentration of TYK2 protein was 0.2 ng/μL.

Some results are limits rather than exact numbers.

TYK2, sequence (P29597 whole entry): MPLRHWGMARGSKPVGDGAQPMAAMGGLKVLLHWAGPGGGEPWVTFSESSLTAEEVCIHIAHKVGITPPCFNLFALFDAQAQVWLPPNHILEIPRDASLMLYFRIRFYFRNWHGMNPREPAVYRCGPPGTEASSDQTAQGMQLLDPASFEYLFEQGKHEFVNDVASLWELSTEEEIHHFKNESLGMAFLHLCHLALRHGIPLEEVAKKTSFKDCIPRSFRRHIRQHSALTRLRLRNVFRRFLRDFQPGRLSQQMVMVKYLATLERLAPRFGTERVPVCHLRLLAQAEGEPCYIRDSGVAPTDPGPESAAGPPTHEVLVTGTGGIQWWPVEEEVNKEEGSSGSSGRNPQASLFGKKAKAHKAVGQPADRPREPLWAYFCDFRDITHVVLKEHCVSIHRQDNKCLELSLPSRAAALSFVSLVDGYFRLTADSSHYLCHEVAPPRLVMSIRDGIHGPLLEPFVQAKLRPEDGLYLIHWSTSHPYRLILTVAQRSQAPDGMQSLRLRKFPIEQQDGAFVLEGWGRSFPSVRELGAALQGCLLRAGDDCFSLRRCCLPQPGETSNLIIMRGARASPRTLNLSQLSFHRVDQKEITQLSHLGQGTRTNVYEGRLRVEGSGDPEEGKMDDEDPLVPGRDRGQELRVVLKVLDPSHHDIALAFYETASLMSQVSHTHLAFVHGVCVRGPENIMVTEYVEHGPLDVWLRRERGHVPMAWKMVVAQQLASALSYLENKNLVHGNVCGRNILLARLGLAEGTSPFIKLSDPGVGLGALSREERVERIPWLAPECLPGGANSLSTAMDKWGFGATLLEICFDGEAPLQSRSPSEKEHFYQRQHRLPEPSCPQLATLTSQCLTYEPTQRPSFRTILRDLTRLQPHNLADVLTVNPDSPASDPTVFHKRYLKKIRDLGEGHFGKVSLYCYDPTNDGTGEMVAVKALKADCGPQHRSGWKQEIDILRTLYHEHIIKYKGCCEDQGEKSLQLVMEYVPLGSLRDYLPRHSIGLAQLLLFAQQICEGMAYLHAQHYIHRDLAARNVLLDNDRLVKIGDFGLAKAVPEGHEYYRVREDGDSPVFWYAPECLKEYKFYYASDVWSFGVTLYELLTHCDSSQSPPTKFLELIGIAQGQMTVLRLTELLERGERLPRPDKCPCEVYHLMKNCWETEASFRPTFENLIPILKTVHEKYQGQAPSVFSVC

On to `Cc1cnc2nc1Nc1ccccc1CCNC(=O)c1ccc(cc1F)-c1cnc(F)c(c1)N2` [Compound 30, 1^3,6^6-difluoro-4^5-methyl-1^3-3,5,9-triaza-4(2,4)-pyrimidina-1(5,2),2(3,5)-dipyridina-6(1,2)-benzenacyclodecaphan-10-one], for which the IC50 in assay [1] fell in the range of 11 to 100 nM; in assay [2], 101 to 1000 nM; in assay [3], 11 to 100 nM; in assay [4], 1000 to 10000 nM.
Consider `Cc1cnc2nc1Nc1cccc(c1)CCCNC(=O)c1ccc(cc1C(=O)O)-c1cnc(F)c(c1)N2` [Compound 37, 2^6-fluoro-4^5-methyl-11-oxo-3,5,10-triaza-4(2,4)-pyrimidina-2(3,5)-pyridina-1(1,4),6(1,3)-dibenzenacycloundecaphan-1^3 - formic acid], for which the IC50 in assay [1] lay in the range of 11 to 100 nM; in assay [2], 101 to 1000 nM; in assay [3] it was 11 to 100 nM; in assay [4], 1000 to 10000 nM.
`Cc1cnc2nc1Nc1cccc(c1)CCNC(=O)c1ccc(cc1S(C)(=O)=O)-c1cnc(F)c(c1)N2` [Compound 24, 2^6-fluoro-4^5-methyl-1^3-(methylsulfonyl)-3,5,9-triaza-4(2,4)-pyrimidina-2(3,5)-pyridina-1(1,4),6(1,3)-dibenzenacyclodecaphan-10-one]: the IC50 is less than 10 nM in assay [1], 11 to 100 nM in assay [2], less than 10 nM in assay [3] and 101 to 1000 nM in assay [4].
For `CNC(=O)c1cc2ccc1C(=O)NCCCCCNc1nc(ncc1C)Nc1cc-2cnc1F` [Compound 40, 2^6-fluoro-N,4^5-dimethyl-12-oxo-3,5,11-triaza-4(2,4)-pyrimidina-2(3,5)-pyridina-1(1,4)-benzenacyclododecaphane-1^3-formamide], the IC50 in assay [1] was 1000 to 10000 nM; in assay [2], 1000 to 10000 nM; in assay [3], 101 to 1000 nM; in assay [4], more than 10000 nM.
In the case of `Cc1cnc2nc1Nc1cc(ccc1O)CCNC(=O)c1ccc(cc1)-c1cnc(F)c(c1)N2` [Compound 48, 2^6-fluoro-6^6-hydroxy-4^5-methyl-3,5,9-triaza-4(2,4)-pyrimidina-2(3,5)-pyridina-1-2,(1,4),6(1,3)-dibenzenacyclodecaphan-10-one], the IC50 in assay [1] was 11 to 100 nM; in assay [2] it was 101 to 1000 nM; in assay [3], 11 to 100 nM; in assay [4], 101 to 1000 nM.
Take `Cc1cnc2nc1NCCCCCNC(=O)c1c(F)cc(cc1F)-c1cnc(F)c(c1)N2` [Compound 39, 1^3,1^5,2^6-trifluoro-4^5-methyl-3,5,11-triaza-4(2,4)-pyrimidina-2(3,5)-pyridina-1(1,4)-benzenacyclododecaphan-12-one]: the IC50 in assay [1] is 101 to 1000 nM; in assay [2], 1000 to 10000 nM; in assay [3], 1000 to 10000 nM; in assay [4] it was more than 10000 nM.
In the case of `Cc1cnc2nc1NCCCCCNC(=O)c1ccc(c(S(C)(=O)=O)c1)-c1cnc(F)c(c1)N2` [Compound 26, 2^6-fluoro-4^5-methyl-1^2-(methylsulfonyl)-3,5,11-triaza-4(2,4)-pyrimidina-2(3,5)-pyridina-1(1,4)-benzenacyclododecaphan-12-one], the IC50 is 1000 to 10000 nM in assay [1], 1000 to 10000 nM in assay [2], 1000 to 10000 nM in assay [3] and more than 10000 nM in assay [4].
As to `Cc1cnc2nc1NCCCCCCCNC(=O)c1ccc(cc1F)-c1cnc(F)c(c1)N2` [Compound 12, I^3,2^6-difluoro-4^5-methyl-3,5,13-triaza-4(2,4)-pyrimidina-2(3,5)-pyridina-1(1,4)-benzenacydododecaphan-12-one], the IC50 is 101 to 1000 nM in assay [1], 1000 to 10000 nM in assay [2], 101 to 1000 nM in assay [3] and 1000 to 10000 nM in assay [4].
In the case of `Cc1cnc2nc1Nc1cccc(c1)CCNC(=O)c1c(F)cc(cc1F)-c1cnc(F)c(c1)N2` [Compound 33, 1^3,1^5,2^6-trifluoro-4^5-methyl-3,5,9-triaza-4(2,4)-pyrimidina-2(3,5)-pyridina-1(1,4),6(1,3)-dibenzenacyclodecaphan-10-one], the IC50 was 101 to 1000 nM in assay [1], 1000 to 10000 nM in assay [2], 101 to 1000 nM in assay [3] and more than 10000 nM in assay [4].
With `Cc1cnc2nc1NCCCCCNC(=O)c1ccc(cc1)-c1cnc(F)c(c1)N2` [Compound 1, 2^6-fluoro-4^5-methyl-3,5,11-triaza-4 (2,4)-pyrimidina-2(3,5)-pyridina-1(1,4)-benzenacyclododecaphan-12-one], the IC50 in assay [1] was 1000 to 10000 nM; in assay [2], 1000 to 10000 nM; in assay [3], 101 to 1000 nM; in assay [4], more than 10000 nM.
For the compound `COc1cnc2nc1NCCCCCNC(=O)c1ccc(cc1)-c1cnc(F)c(c1)N2` [Compound 5, 2^6-fluoro-4^5-methoxy-3,5,11-triaza-4(2,4)-pyrimidina-2(3,5)-pyridina-1(1,4)-benzenacyclododecaphan-12-one], the IC50 was 1000 to 10000 nM in assay [1], 1000 to 10000 nM in assay [2], 1000 to 10000 nM in assay [3] and more than 10000 nM in assay [4].
With `Cc1cnc2nc1Nc1cccc(c1)CCCC(=O)N1CCN(CC1)c1cnc(F)c(c1)N2` [Compound 35, 2^6-fluoro-4^5-methyl-3,5-diaza-4(2,4)-pyrimidina-1(1,4)-piperazina-2(3,5)-pyridina-6(1,3)-benzenacyclodecaphan-10-one], the IC50 in assay [1] is 11 to 100 nM; in assay [2], 101 to 1000 nM; in assay [3], less than 10 nM; in assay [4] it was 101 to 1000 nM.
For the compound `Cc1cc2ccc1C(=O)NCCCCCNc1nc(ncc1C)Nc1cc-2cnc1F` [Compound 11, 2^6-fluoro-l^3,4^5-dimethyl-3,5,11-triaza-4(2,4)-pyrimidina-2(3,5)-pyridina-1(1,4)-benzenacyclododecaphan-12-one], the IC50 lay in the range of 101 to 1000 nM in assay [1], 1000 to 10000 nM in assay [2], 101 to 1000 nM in assay [3] and 1000 to 10000 nM in assay [4].
For the compound `COc1cc2ccc1C(=O)NCCCCCNc1nc(ncc1C)Nc1cc-2cnc1F` [Compound 8, 2^6-fluoro-1^3-methoxy-4^5-methyl-3,5,11-triaza-4(2,4)-pyrimidina-2(3,5)-pyridina-1(1,4)-benzenacyclododecaphan-12-one], the IC50 was 1000 to 10000 nM in assay [1], 1000 to 10000 nM in assay [2], 101 to 1000 nM in assay [3] and more than 10000 nM in assay [4].
For `Cc1cnc2nc1Nc1cc(ccc1F)CCNC(=O)c1ccc(cc1S(C)(=O)=O)-c1cnc(F)c(c1)N2` [Compound 29, 2^6,6^6-difluoro-4^5-methyl-1^3(methylsulfonyl)-3,5,9-triaza-4(2,4)-pyrimidina-2(3,5)-pyridina-1(1,4),6(1,3)-dibenzenacyclodecaphan-10-one], the IC50 in assay [1] was 101 to 1000 nM; in assay [2], 1000 to 10000 nM; in assay [3] it was 11 to 100 nM; in assay [4], more than 10000 nM.
As for `Cc1cnc2nc1Nc1cc(ccc1F)CCCNC(=O)c1ncc(cc1F)-c1cnc(F)c(c1)N2` [Compound 45, 1^3,2^6,6^6-trifluoro-4^5-methyl-3,5,10-triaza-4(2,4)-pyrimidina-1(5,2),2(3,5)-bipyridina-6(1,3)-benzenacycloundecaphan-11-one], the IC50 in assay [1] fell in the range of 11 to 100 nM; in assay [2] it was 101 to 1000 nM; in assay [3] it was 11 to 100 nM; in assay [4], 1000 to 10000 nM.
